Laboratory results: ChEMBL document CHEMBL4000234, “Synthesis and antiviral evaluation of novel heteroarylpyrimidines analogs as HBV capsid effectors” (Bioorg Med Chem Lett, 2017)

How the values were obtained:
[1] = system: Hepatitis B virus; assay: Antiviral activity against HBV infected in human HepAD38 cells assessed as inhibition of DNA replication after 5 days by RT-PCR method; assay type: functional, cell-based; settings: HePAD38, 120 h
[2] = system: PBMC; assay: (§1) Cytotoxicity against human PBMC assessed as growth inhibition by CellTiter 96 non-radioactive cell proliferation colorimetric assay; assay type: cell-based
[3] = system: HepG2; assay: (§2) Cytotoxicity against human HepG2 cells assessed as growth inhibition by CellTiter 96 non-radioactive cell proliferation colorimetric assay; assay type: cell-based; settings: hepg2
[4] = system: Vero; assay: (§3) Cytotoxicity against African green monkey Vero cells assessed as growth inhibition by CellTiter 96 non-radioactive cell proliferation colorimetric assay; assay type: cell-based; settings: chlorocebus sabaeus, vero
[5] = system: CCRF-CEM; assay: (§4) Cytotoxicity against human CEM cells assessed as growth inhibition by CellTiter 96 non-radioactive cell proliferation colorimetric assay; assay type: cell-based; settings: ccrf-cem
[6] = as §1; assay type: cell-based
[7] = as §2; assay type: cell-based; settings: HepG2 cells
[8] = as §3; assay type: cell-based; settings: chlorocebus sabaeus, Vero cells
[9] = as §4; assay type: cell-based, CCRF-CEM; settings: CEM cells (CCRF-CEM)

Structure (SMILES) | EC50 [1] [µM] | CC50 [2] [µM] | CC50 [3] [µM] | CC50 [4] [µM] | CC50 [5] [µM] | CC50 [6] [µM] | CC50 [7] [µM] | CC50 [8] [µM] | CC50 [9] [µM]
CC1=C(I)C(c2ccc(F)cc2Cl)N=C(c2ccccn2)N1 (stereo unspecified) | 4.1 | 80 | > 100 | 29 | 74 |  |  |  | 
Fc1ccc(C2N=C(c3ccccn3)NC(CN3CCOCC3)=C2I)c(Cl)c1 (stereo unspecified) | 4 | > 100 | > 100 | 45 | 11 |  |  |  | 
COC(=O)c1c(Cc2ccccc2)nc(-c2ccccn2)nc1CN1CCN(C)CC1 | > 10 | > 100 | > 100 | > 100 | 86 |  |  |  | 
CCCC[n+]1ccn(CC2=C(C(=O)OC)C(c3ccc(F)cc3Cl)N=C(c3ccccn3)N2)c1 (stereo unspecified) | > 10 | 20 | 14 | > 100 | 3 |  |  |  | 
COC(=O)C1=C(Cn2cc[n+](C)c2)NC(c2ccccn2)=NC1c1ccc(F)cc1Cl (stereo unspecified) | > 10 | 44 | > 100 | > 100 | 23 |  |  |  | 
Nc1ccn([C@@H]2CS[C@H](CO)O2)c(=O)n1 [LAMIVUDINE] | 0.04 |  |  |  |  | > 100 | 10 to 100 | > 100 | > 100
CCOP(=O)(CC1=C(C(=O)OC)C(c2ccc(F)cc2Cl)N=C(c2ccccn2)N1)OCC (stereo unspecified) | > 10 | 65 | > 100 | 43 | 15 |  |  |  | 
CC1=C(Br)C(c2ccc(F)cc2Cl)N=C(c2ccccn2)N1 (stereo unspecified) | 5.2 | > 100 | 79 | 16 | 23 |  |  |  | 
COC(=O)C1=C(CSc2ccccc2)NC(c2ccccn2)=NC1Cc1ccccc1 (stereo unspecified) | > 10 | > 100 | 96 | > 100 | 5 |  |  |  | 
CC(=O)NC1=C(C)NC(c2ccccn2)=NC1c1ccc(F)cc1Cl (stereo unspecified) | > 10 | > 100 | 80 | > 100 | > 100 |  |  |  | 
CC1=C(C(=O)NS(=O)(=O)N(C)C)C(c2ccc(F)cc2Cl)N=C(c2ccccn2)N1 (stereo unspecified) | > 10 | > 100 | > 100 | ≥ 100 | > 100 |  |  |  | 
COCCOCc1nc(-c2ccccn2)nc(Cc2ccccc2)c1C(=O)OC | > 10 | 99 | ≥ 100 | 87 | 55 |  |  |  | 
CC1(C)CC(=O)c2c(Cc3ccccc3)nc(-c3ccccn3)nc2C1 | > 10 | 43 | 47 | 53 | 21 |  |  |  | 
CC1(C)CC(=O)c2c(Cc3ccc(F)cc3Cl)nc(-c3ccccn3)nc2C1 | > 10 | 69 | 42 | 29 | 9 |  |  |  | 
Fc1ccc(C2N=C(c3nccs3)NC(CN3CCOCC3)=C2I)c(Br)c1 (stereo unspecified) | 5.7 | 75 | > 100 | > 100 | 33 |  |  |  | 
CCOC(=O)C1=C(CN2CCOCC2)NC(c2nccs2)=NC1c1ccc(F)cc1Br (racemic) | 0.3 |  |  |  |  |  |  |  | 
CCS(=O)(=O)CC1=C(C(=O)OC)C(c2ccc(F)cc2Cl)N=C(c2ccccn2)N1 (stereo unspecified) | > 10 | > 100 | > 100 | > 100 | 39 |  |  |  | 

The next lines start with results.

EC50 [1] [µM] | Structure (SMILES) | CC50 [2] [µM] | CC50 [3] [µM] | CC50 [4] [µM] | CC50 [5] [µM] | CC50 [6] [µM] | CC50 [7] [µM] | CC50 [8] [µM] | CC50 [9] [µM]
> 10 | CC1=C(C(=O)OCC(F)(F)F)C(c2ccc(F)cc2Cl)N=C(c2ccccn2)N1 (stereo unspecified) | > 100 | > 100 | 65 | 4 |  |  |  | 
7.1 | CC1=C(I)C(c2ccc(F)cc2Br)N=C(c2nccs2)N1 (stereo unspecified) | 80 | > 100 | > 100 | 33 |  |  |  | 
> 10 | COC(=O)c1c(Cc2ccc(F)cc2Cl)nc(-c2ccccn2)nc1CN1CCOCC1 | 34 | 69 | 71 | 11 |  |  |  | 
0.45 to 0.5 | COC(=O)C1=C(CN2CCOCC2)NC(c2ccccn2)=NC1c1ccc(F)cc1Cl (racemic) | > 100 | > 100 | > 100 | > 100 |  |  |  | 
> 10 | CC(=O)NC1=C(CN2CCOCC2)NC(c2ccccn2)=NC1c1ccc(F)cc1Cl (stereo unspecified) | 28 | > 100 | 18 | 69 |  |  |  | 
> 10 | CC1=C(Cl)C(c2ccc(F)cc2Cl)N=C(c2ccccn2)N1 (stereo unspecified) | > 100 | 98 | 13 | 44 |  |  |  | 
> 10 | CC1(C)CC(=O)c2c(Cc3ccc(F)cc3Cl)nc(-c3cccnc3)nc2C1 | > 100 | > 100 | ≥ 100 | 86 |  |  |  | 
5.3 | COC(=O)C1=C(CN=[N+]=[N-])NC(c2ccccn2)=NC1c1ccc(F)cc1Cl (stereo unspecified) | > 100 | > 100 | 56 | > 100 |  |  |  | 
> 10 | COC(=O)c1c(CSc2ccccc2)nc(-c2ccccn2)nc1Cc1ccccc1 | 65 | > 100 | 12 | 9 |  |  |  | 
> 10 | COC(=O)C1=C(C)NC(c2ccccn2)=NC1Cc1ccccc1 (stereo unspecified) | 52 | > 100 | > 100 | 61 |  |  |  | 
> 10 | CC1(C)CC(=O)c2c(Cc3ccc(F)cc3Cl)nc(-c3ccncc3)nc2C1 | > 100 | ≥ 100 | 10 | ≥ 100 |  |  |  | 
> 10 | COC(=O)C1=C(CN2CCN(C)CC2)NC(c2ccccn2)=NC1Cc1ccccc1 (stereo unspecified) | > 100 | 14 | 76 | 17 |  |  |  | 
> 10 | COC(=O)c1c(Cc2ccccc2)nc(-c2ccccn2)nc1CN1CCOCC1 | 81 | > 100 | 59 | 2 |  |  |  | 
> 10 | COC(=O)c1c(C)nc(-c2ccccn2)nc1Cc1ccccc1 | 67 | 41 | 61 | 4 |  |  |  | 
> 10 | CC1(C)CC(=O)C2=C(C1)NC(c1cccnc1)=NC2c1ccc(F)cc1Cl (racemic) | > 100 | > 100 | > 100 | > 100 |  |  |  | 
> 10 | CC1=C(C(=O)SC(C)C)C(c2ccc(F)cc2Cl)N=C(c2ccccn2)N1 (stereo unspecified) | 31 | > 100 | 40 | 13 |  |  |  | 
> 10 | COC(=O)C1=C(CS(=O)(=O)Cc2ccc(C)cc2)NC(c2ccccn2)=NC1c1ccc(F)cc1Cl (stereo unspecified) | 67 | > 100 | ≥ 100 | 47 |  |  |  | 
